Source: article PMC8416020 (eLife, 2021)
Where “and” joins values, the source holds several entries; their conditions need not be identical. Equal values may be shown once. Read-outs that look alike come from different tables or passages of the source.

Key:
[1] = test system: GHSR labeled with 7H4MC-ethylglycine at F272^6.44; test: Hydration parameter H from 7H4MC fluorescence emission; format: biochemical, human; conditions: for H parameter: 6.44, ligand 10 µM, POPC:POPG nanodiscs, 15°C, ex 320 nm
From the text: (§1) We then investigated whether the fluorescence properties of 7H4MC-ethylglycine could report on the local hydration features of GHSR. To this end, we analyzed the 7H4MC emission profile for each of the positions considered. An excitation wavelength of 320 nm was systematically used to excite the neutral form of the fluorophore ([Amaro et al., 2015]). The emission spectra were deconvoluted into their separate components using the procedure initially described ([Amaro et al., 2015]). A hydration parameter H was then determined that corresponded to the sum of the contributions of the anionic and tautomer forms. This parameter is an indicator of the extent of hydration at the position considered, as the higher the H parameter the higher local hydration ([Amaro et al., 2015]). A difference in the H parameter inferred for the 7H4MC probe at the different positions of the apo GHSR was observed depending on the position considered (Figure 2—figure supplement 1, 2).
(§2) Figure 2. Local hydration of growth hormone secretagogue receptor (GHSR) as a function of ligands. […] All ligands were used at a 10 µM concentration. In all cases, the data represents the mean value ± SD of three experiments. Statistical analyses are provided in […]—figure supplement 2 and 4. Figure 2—source data 1. H parameter for GHSR and its mutants. Figure 2—figure supplement 1. Emission spectra of L-(7-hydroxycoumarin-4-yl) (7H4MC)-ethylglycine incorporated into isolated growth hormone secretagogue receptor (GHSR). The spectra were recorded in the absence of ligand. The labeling positions are given in a snake-like plot of GHSR ([Shiimura et al., 2020]) (A) (red: positions deleterious to GHSR function; green: positions considered in this work), and then indicated in each panel (B–F). The excitation wavelength was set to 320 nm with an emission intensity recorded between 340 and 600 nm. The gray curve represents the experimental emission spectrum (exp). The red, blue, green, and magenta spectra represent the decomposition of the experimental spectrum into its neutral (N), complexed (C), anionic (A), and tautomeric (T) components, respectively. The orange curve (fit) corresponds to sum of the individual N, C, A, and T curves. Figure 2—figure supplement 1—source data 1. 7-H4MC emission intensity of the apo GHSR mutants. [drawing 7] Figure 2—figure supplement 2. Statistical analysis of the data in Figure 2. […] Data is from Figure 2. […] Structure of the ligands used throughout this work. [drawing 9] Figure 2—figure supplement 4. Statistical analysis of the data in Figure 2. The left panels show the hydration parameter for each of the mutants in the absence or in the presence of ligands. Data are from Figure 2. The right panels show the mean difference between the apo and the ligand-loaded states for each of the mutants with multiplicity-adjusted 95% confidence intervals. [drawing 10] Figure 2—figure supplement 5. Emission spectra of L-(7-hydroxycoumarin-4-yl) (7H4MC)-ethylglycine incorporated at position 5.58 of growth hormone secretagogue receptor (GHSR) in the presence of pharmacologically distinct ligands or phosphatidylinositol-4,5-bisphosphate (PIP2). […] The excitation wavelength was set to 320 nm with an emission intensity recorded between 340 and 600 nm. The black curve represents the experimental emission spectrum (exp). The red one (fit) corresponds to sum of the individual curves after decomposition of the experimental spectrum into its neutral, complexed, anionic, and tautomeric components. Figure 2—figure supplement 5—source data 1. 7-H4MC emission intensity of the GHSR 5.58 mutant in the presence of ligands. [drawing 11] Figure 2—figure supplement 6. […]

[2] = test system: GHSR labeled with 7H4MC-ethylglycine at I134^3.43; test: as above; format: biochemical, human; conditions: ligand 10 µM, POPC:POPG nanodiscs, 15°C, ex 320 nm
From the text: as §1, §2

[3] = test system: GHSR labeled with 7H4MC-ethylglycine at S315^7.45; test: as above; format: biochemical, human; conditions: ligand 10 µM, POPC:POPG nanodiscs, 15°C, ex 320 nm
From the text: as §1, §2

[4] = test system: GHSR labeled with 7H4MC-ethylglycine at V268^6.40; test: as above; format: biochemical, human; conditions: 6.4, ligand 10 µM, POPC:POPG nanodiscs, 15°C, ex 320 nm
From the text: as §1, §2

[5] = test system: GHSR labeled with 7H4MC-ethylglycine at Y232^5.58; test: as above; format: biochemical, human; conditions: for H parameter: 5.58, ligand 10 µM, POPC:POPG nanodiscs, 15°C, ex 320 nm
From the text: as §1, §2

[6] = test system: GHSR; conditions: ref M'Kadmi et al., 2015; cited from earlier work
[7] = test system: 7H4MC-labeled GHSR; test: Hydration parameter H from 7H4MC fluorescence emission, several positions together; format: biochemical, human; conditions: any of the positions considered; saturating ligand (10 µM)
From the text: as §1
Figure 2. Local hydration of growth hormone secretagogue receptor (GHSR) as a function of ligands. […] All ligands were used at a 10 µM concentration. […] The spectra were recorded in the absence of ligand. […] The excitation wavelength was set to 320 nm with an emission intensity recorded between 340 and 600 nm. […] The excitation wavelength was set to 320 nm with an emission intensity recorded between 340 and 600 nm. […]

[8] = test system: isolated GHSR; conditions: ref Mary et al., 2012; Damian et al., 2015; cited from earlier work
From the text: We then used 7H4MC fluorescence to monitor the impact of ligand binding on the hydration pattern of GHSR.

[9] = test system: GHSR; conditions: ref Ferré et al., 2019; cited from earlier work
Protocol: For labeling with 7H4MC-ethylglycine, the TAG amber codon was introduced at the positions indicated in Figure 1A by site-directed mutagenesis with the pET21a expression vector encoding human GHSR fused to the α5 integrin ([Damian et al., 2012]). The UAA solution was prepared by dissolving 263 mg of 7H4MC-ethylglycine in 10 mL 200 mM KOH solution and filter-sterilizing. […] Cultures were grown at 37°C ...

[10] = target: GHSR1a (Homo sapiens) (UniProt Q92847); conditions: cited from earlier work
[11] = target: GHSR (Homo sapiens) (UniProt Q92847); conditions: cited from earlier work
[12] = target: GHSR (Homo sapiens) (UniProt Q92847); test: FRET; conditions: cited from earlier work
[13] = target: GHSR (Homo sapiens) (UniProt Q92847); test: 125I-ghrelin radioligand binding; conditions: cited from earlier work
[14] = test system: adenosine A2a receptor; conditions: ref Yen et al., 2018; cited from earlier work
From the text: (§3) In addition to ligands, other components in the receptor environment allosterically impact on GPCR activation and conformational dynamics. […] Among the lipids reported to affect GPCR signaling such as cholesterol ([Casiraghi et al., 2016]; [Zocher et al., 2012]) or charged phospholipids ([Strohman et al., 2019]; [Daw ...

[15] = test system: ghrelin receptor; conditions: ref Damian et al., 2021; cited from earlier work
From the text: as §3

[16] = test system: neurotensin receptor 1; conditions: ref Yen et al., 2018; cited from earlier work
From the text: as §3

[17] = test system: β1-adrenergic receptor; conditions: ref Yen et al., 2018; cited from earlier work
From the text: as §3

[18] = target: T1, GHSR (Homo sapiens, UniProt Q92847); test: FRET
T1 chain: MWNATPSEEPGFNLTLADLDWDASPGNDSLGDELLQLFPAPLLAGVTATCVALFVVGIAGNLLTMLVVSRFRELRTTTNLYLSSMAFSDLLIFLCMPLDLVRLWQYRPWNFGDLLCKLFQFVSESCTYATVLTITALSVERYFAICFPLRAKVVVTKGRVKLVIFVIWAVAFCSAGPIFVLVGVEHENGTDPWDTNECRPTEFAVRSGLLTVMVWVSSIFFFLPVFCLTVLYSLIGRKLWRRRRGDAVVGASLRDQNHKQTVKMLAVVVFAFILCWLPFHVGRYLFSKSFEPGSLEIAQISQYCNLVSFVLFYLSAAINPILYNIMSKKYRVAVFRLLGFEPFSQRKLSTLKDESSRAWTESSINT

[19] = saturating ligand (10 µM), vs apo
[20] = 2.5% PIP2 in nanodiscs, 10 µM ghrelin

`COc1ccc(Cn2c(CCc3ccccc3)nnc2[C@@H](Cc2c[nH]c3ccccc23)NC(=O)c2ccccn2)c(OC)c1` [JMV3002] gave a H parameter ([1]; replicate 1) of 24.24, a H parameter ([1]; replicate 2) of 22.63 and a H parameter ([1]; replicate 3) of 23.15. For the same molecule, the “change in the hydration parameter at position 6.44 upon binding” value [1, 19] was “decrease in the hydration parameter at position 6.44”, the H parameter ([2]; replicate 1) was 67.89 and the H parameter ([2]; replicate 2) was 65.22. For the same molecule, the H parameter ([2]; replicate 3) was 66.89, the H parameter ([3]; replicate 1) was 21.56 and the H parameter ([3]; replicate 2) was 20.44. For the same molecule, the H parameter ([3]; replicate 3) was 18.97, the H parameter ([4]; replicate 1) was 66.83 and the H parameter ([4]; replicate 2) was 65.42. For the same molecule, the H parameter ([4]; replicate 3) was 67.29, the H parameter ([5]; replicate 1) was 26.59 and the H parameter ([5]; replicate 2) was 27.63. The H parameter ([5]; replicate 3) was 28.26, the “change in the hydration parameter at position 5.58 upon binding” value [5, 19] was “no change was observed for the probe at position 5.58” and the “Gi activation and arrestin recruitment” value [6] was “triggers neither Gi activation nor arrestin recruitment”. For the same molecule, the pharmacological class [6] was “Gq-biased partial agonist”.

Work on `COc1ccc(Cn2c(CCc3c[nH]c4ccccc34)nnc2C(Cc2c[nH]c3ccccc23)NC(=O)c2ccccn2)c(OC)c1` (stereo not shown) [JMV3011] yielded a H parameter ([1]; replicate 1) of 34.06, a H parameter ([1]; replicate 2) of 36.74 and a H parameter ([1]; replicate 3) of 35.98. It also gave a H parameter ([2]; replicate 1) of 62.25, a H parameter ([2]; replicate 2) of 63.97 and a H parameter ([2]; replicate 3) of 62.73. For the same molecule, the H parameter ([3]; replicate 1) was 21.2, the H parameter ([3]; replicate 2) was 22.69 and the H parameter ([3]; replicate 3) was 23.47. It also gave a H parameter ([4]; replicate 1) of 64.53, a H parameter ([4]; replicate 2) of 63.48 and a H parameter ([4]; replicate 3) of 65.36. The H parameter ([5]; replicate 1) was 24.19, the H parameter ([5]; replicate 2) was 26.01 and the H parameter ([5]; replicate 3) was 26.56. For the same molecule, the “change in the hydration parameter upon binding” value [7] was “not accompanied by a measurable change in the hydration parameter”, the pharmacological class [6] was “neutral antagonist” and the “change in the conformation of isolated GHSR” value [8] was “not associated with any change in the conformation of isolated GHSR”.

In the case of JMV2959, the “pharmacological class (affinity chromatography ligands)” value [9] is given as “antagonist”.

In the case of ghrelin (from UniProt Q9UBU3), the Kd [10] is given as 0.4 nM, the Kd [11] is given as 12.5 nM and the Ki [12] is given as 4.6 nM. For the same molecule, the Kd [13] was 4.4 nM and 2.3 nM.

In the case of “phosphatidylinositol-4,5-bisphosphate [PIP2]”, the “effect of adding PIP2 on the H parameter for position 6.44” value [1, 20] is given as “decreased that for position 6.44”, the “effect of adding PIP2 on the H parameter for position 5.58” value [5, 20] is given as “increased the H parameter for position 5.58” and the “stabilization of the receptor:G protein complex” value (from here on “stabilization”) [14] is given as “stabilize the receptor:G protein complex”. The “effect on ghrelin signaling” value [15] was “allosteric regulator of ghrelin signaling”, the “stabilization” value [16] was “stabilize the receptor:G protein complex” and the “stabilization” value [17] was “stabilize the receptor:G protein complex”.

B1: ghrelin (peptide)
chain: GSSFLSPEHQRVQQRKESKKPPAKLQP
B1 gave a Ki [18] of 77 nM.
